Data as given in US20090163561A1, “AMORPHOUS METAXALONE AND AMORPHOUS DISPERSIONS THEREOF” (URL Pharma, Inc., priority 2007, published 2009).
Where two headings read alike, the source gives them in different places.

Tests used:
[1] = pH ˜1.5; cited from earlier work
[2] = Moisture balance (moisture sorption-desorption analysis); format: physicochemical; details: for post-MB XRPD form: after moisture balance
Text: FIG. 6. Moisture sorption-desorption analysis of metaxalone Form A. FIG. 10. Moisture sorption-desorption analysis of metaxalone Form B.

[3] = Storage stability of solid amorphous metaxalone; format: physicochemical
Procedure: A glass vial containing metaxalone Form A was placed in a silicon oil bath at 155° C. Once the solids had melted, the vial was quickly cooled in a dry ice/acetone bath (about −78° C.). Glassy solids resulted.

MB (moisture balance) result [2] | post-MB XRPD form [2] | stability against conversion to a crystalline form when stored [3] | stability against conversion to a crystalline form when stored ([3]; listed as solid amorphous metaxalone) | SMILES | solubility at low pH [1]
 |  |  |  | Cc1cc(C)cc(OCC2CNC(=O)O2)c1 (stereo not shown) [Crystalline metaxalone, 5-(3′,5′-dimethylphenoxy)methyl-2-oxazolidinone] | insoluble
nonhygroscopic solid | Form A |  |  | Cc1cc(C)cc(OCC2CNC(=O)O2)c1 (stereo not shown) [Metaxalone Form A, 5-(3′,5′-dimethylphenoxy)methyl-2-oxazolidinone] | 
non-hygroscopic | Form B |  |  | Cc1cc(C)cc(OCC2CNC(=O)O2)c1 (stereo not shown) [Metaxalone Form B, 5-(3′,5′-dimethylphenoxy)methyl-2-oxazolidinone] | 
 |  | produce crystalline material | not stable | Cc1cc(C)cc(OCC2CNC(=O)O2)c1 (stereo not shown) [Solid Amorphous Metaxalone, 5-(3′,5′-dimethylphenoxy)methyl-2-oxazolidinone] | 
